According to ChEMBL document CHEMBL5029168, “Discovery of novel ID2 antagonists from pharmacophore-based virtual screening as potential therapeutics for glioma” (Bioorg Med Chem, 2021):

Experiments:
U-87 MG = assay: Cytotoxicity against human U87 cells assessed as reduction in cell viability incubated for 24 hrs by CCK8 assay; assay type: functional, cell-based, U-87MG ATCC
Hs 683 = assay: Cytotoxicity against human Hs 683 cells assessed as reduction in cell viability incubated for 24 hrs by CCK8 assay; assay type: functional, cell-based; settings: Hs 683, 24 h
GL261 = assay: Cytotoxicity against mouse GL261 cells assessed as reduction in cell viability incubated for 24 hrs by CCK8 assay; assay type: functional, cell-based; settings: GL261, 24 h
[1] = Aqueous solubility of compound at up to 80 uM measured after 10 mins by optical microscopic analysis; assay type: physicochemical; settings: buffer

O=C(NCCc1ccccc1)c1ccc(N2C[C@@H]3C[C@H](C2)c2cccc(=O)n2C3)c(NS(=O)(=O)c2cccc(Cl)c2)c1
IC50 (U-87 MG): 56.2 µM | IC50 (Hs 683): 55.3 µM | IC50 (GL261): 48.1 µM

Cc1ccc([C@H](O)CNC(=O)c2cccc(C)c2C)cc1
IC50 (U-87 MG): 67.3 µM | IC50 (Hs 683): 70.3 µM | IC50 (GL261): 74.2 µM

O=C(Cc1cccc2ccccc12)NNC(=O)Nc1cccc(Cl)c1
IC50 (U-87 MG): > 100 µM | IC50 (Hs 683): > 100 µM | IC50 (GL261): > 100 µM

Cc1ccc(CNC(=O)Cn2c(CO)cnc2SCC(=O)Nc2ccc3c(c2)OCO3)cc1
IC50 (U-87 MG): 37.8 µM | IC50 (Hs 683): 41.5 µM | IC50 (GL261): 50.1 µM

Cc1ccc(NC(=O)C[C@H]2SC(NC(c3ccc(F)cc3)c3c(O)[nH]c(=O)[nH]c3=O)=NC2=O)cc1C (stereo not given in full)
IC50 (U-87 MG): 46.5 µM | IC50 (Hs 683): 40.8 µM | IC50 (GL261): 47.9 µM

NC(=O)C1CCN(C(=O)c2ccc(CSc3nc4cccnc4n3Cc3ccccc3)cc2)CC1
IC50 (U-87 MG): 60.3 µM | IC50 (Hs 683): 62.3 µM | IC50 (GL261): 56.7 µM

Cc1ccc(CN2C(=O)[C@](O)(CC(=O)c3ccc4c(c3)OCO4)c3cc(Br)ccc32)cc1
IC50 (U-87 MG): 15.5 µM | IC50 (Hs 683): 18.7 µM | IC50 (GL261): 21.3 µM | solubility [1]: Insoluble

O=C(C1=C(O)C(=O)N(CCc2c[nH]c3ccccc23)[C@@H]1c1cccc(O)c1)c1ccc(Cl)cc1
IC50 (U-87 MG): 54.3 µM | IC50 (Hs 683): 60.8 µM | IC50 (GL261): 57.3 µM
